# Assay results from EP2423181A1, “Multitarget substituted biphenyl diol derivatives” (PROUS INSTITUTE FOR BIOMEDICAL RESEARCH S.A., priority 2010, dated 2012).
# Counter-ions that a name gives are not always drawn. Like-named read-outs stand apart in the source and are kept apart here.
# How the values were obtained:
# [1] = target: T1, CDK2/CCNA2 (cdk2/cyclin A) (Homo sapiens, UniProt P24941); test: CDK2/cyclin A kinase inhibition ([32P]Histone H1); type: biochemical
# T1 construct: host or cells: Sf21 insect cells
# Protocol: Human recombinant Sf21 cells were employed to assess the activity on protein serine threonine kinase CDK2/CCNA2 (cdk2/cyclin A). Histone H1 at 100 µg/ml was used as a substrate and the activity was measured by quantification of [^32P]Histone H1 after preincubation and incubation times of 15 and 30 min, respectively, at 37°C in 20 mM MOPS, pH 7.2, 5 mM EGTA, 20 mM MgCl2, 1 mM DTT, 25 mM β-Glycerophosphate, 1 mM Na3V04 incubation buffer (Gray, N. et al. Curr Med Chem, 1999, 6(9):859-875). Table 7. Inhibition of CDK2 at 10 µM
# MAPK1 (ERK2) = target: T2, MAPK1 (ERK2) (Homo sapiens, UniProt P28482); test: MAPK1 (ERK2) kinase inhibition ([32P]MBP); type: biochemical
# T2 construct: host or cells: E. coli
# Protocol: Protein serine threonine kinase MAPK1(ERK2) was assessed in human recombinant E.Coli using 50 µg/ml myelin basic protein (MBP) as a substrate after preincubation and incubation times of 15 and 30 min, respectively, at 37°C in 20 mM MOPS, pH 7.2, 5 mM EGTA, 20 mM MgCl2, 1 mM DTT, 25 mM β-glycerophosphate, 1 mM Na3VO4 incubation buffer. The inhibitory activity was measured by quantification of [^32P]MBP (Jonhson, G.L. and Lapadat, R. Science 2002, 298(5600), 1911-1912). Table 8. Inhibition of MAPK1 at 10 µM
# tumor breast MCF-7 = test: Tumor cell proliferation assay (alamarBlue); type: cell-based; settings: Homo sapiens, MCF7
# Outline: (§1)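 Viable-cell metabolic activity was measured by alamarBlue reduction from the oxidized, non-fluorescent blue form to the reduced, fluorescent red form. Test substances were applied to human or murine tumor cell lines at 0.01 to 100 µM to assess effects on proliferation.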
# tumor breast MDA-MB-231 = test: Tumor cell proliferation assay (alamarBlue); type: cell-based; settings: Homo sapiens
# Outline: as §1
# tumor breast T-47D = test: Tumor cell proliferation assay (alamarBlue); type: cell-based; settings: Homo sapiens, T47D
# Outline: as §1
# tumor liver Hep 3B = test: Tumor cell proliferation assay (alamarBlue); type: cell-based; settings: Homo sapiens, Hep3B
# Outline: as §1
# tumor brain U-87 MG = test: Tumor cell proliferation assay (alamarBlue); type: cell-based; settings: Homo sapiens; tumor brain U-87 MG; read-out: IC50
# Outline: as §1
# tumor colon HCT-116 = test: Tumor cell proliferation assay (alamarBlue); type: cell-based; settings: Homo sapiens; tumor colon HCT-116; read-out: IC50
# Outline: as §1
# tumor ovary OVCAR-3 = test: Tumor cell proliferation assay (alamarBlue); type: cell-based; settings: Homo sapiens; tumor ovary OVCAR-3; read-out: IC50
# Outline: as §1
# mice [2] = test: Hot plate test (analgesic activity); type: in vivo
# Protocol: The hot plate test was used as an animal model of thermally-induced pain. The inhibitory activity measured on the time licking and biting induced by temperature (30 sec max at 55°C) indicates analgesic effect. […] Table 13. Analgesic activity of example 1 in the hot plate test
# ERα = ERα (Homo sapiens, UniProt P03372); test: Inhibition of ERα; type: binding; settings: slight, non-significant
# ERβ = ERβ (Homo sapiens, UniProt Q92731); test: Inhibition of ERβ; type: binding; settings: slight, non-significant
# mice [3] = test: Hot plate test (analgesic activity); type: in vivo; remark: listed apart in the source
# T2 sequence (P28482 whole entry): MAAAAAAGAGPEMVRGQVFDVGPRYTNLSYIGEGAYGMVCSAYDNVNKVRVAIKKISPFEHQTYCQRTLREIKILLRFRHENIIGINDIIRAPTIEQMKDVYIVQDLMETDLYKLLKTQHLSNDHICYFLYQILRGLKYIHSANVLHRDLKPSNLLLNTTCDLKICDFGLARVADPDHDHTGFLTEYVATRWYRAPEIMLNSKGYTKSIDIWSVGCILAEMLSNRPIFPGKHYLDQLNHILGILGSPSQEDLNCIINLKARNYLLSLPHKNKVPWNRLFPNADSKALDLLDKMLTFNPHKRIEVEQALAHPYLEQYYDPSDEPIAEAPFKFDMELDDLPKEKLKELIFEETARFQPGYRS
# Chain of ERα (P03372 whole entry, species assumed): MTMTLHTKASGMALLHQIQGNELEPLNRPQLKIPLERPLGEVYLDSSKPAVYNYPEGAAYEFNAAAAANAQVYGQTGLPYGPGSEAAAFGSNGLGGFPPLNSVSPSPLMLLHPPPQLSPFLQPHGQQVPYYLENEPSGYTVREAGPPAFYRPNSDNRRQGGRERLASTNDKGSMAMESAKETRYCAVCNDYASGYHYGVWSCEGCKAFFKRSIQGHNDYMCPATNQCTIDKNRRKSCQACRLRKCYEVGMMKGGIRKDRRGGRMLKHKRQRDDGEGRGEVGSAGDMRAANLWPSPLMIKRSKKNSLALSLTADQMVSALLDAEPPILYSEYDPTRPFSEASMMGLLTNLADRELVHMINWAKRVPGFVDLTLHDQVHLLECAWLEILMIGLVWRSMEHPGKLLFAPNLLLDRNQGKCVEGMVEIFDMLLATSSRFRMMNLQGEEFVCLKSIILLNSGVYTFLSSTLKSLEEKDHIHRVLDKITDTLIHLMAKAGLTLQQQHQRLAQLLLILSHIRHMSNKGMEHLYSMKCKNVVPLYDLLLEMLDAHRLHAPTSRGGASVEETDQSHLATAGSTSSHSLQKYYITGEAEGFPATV
# Chain of ERβ (Q92731 whole entry, species assumed): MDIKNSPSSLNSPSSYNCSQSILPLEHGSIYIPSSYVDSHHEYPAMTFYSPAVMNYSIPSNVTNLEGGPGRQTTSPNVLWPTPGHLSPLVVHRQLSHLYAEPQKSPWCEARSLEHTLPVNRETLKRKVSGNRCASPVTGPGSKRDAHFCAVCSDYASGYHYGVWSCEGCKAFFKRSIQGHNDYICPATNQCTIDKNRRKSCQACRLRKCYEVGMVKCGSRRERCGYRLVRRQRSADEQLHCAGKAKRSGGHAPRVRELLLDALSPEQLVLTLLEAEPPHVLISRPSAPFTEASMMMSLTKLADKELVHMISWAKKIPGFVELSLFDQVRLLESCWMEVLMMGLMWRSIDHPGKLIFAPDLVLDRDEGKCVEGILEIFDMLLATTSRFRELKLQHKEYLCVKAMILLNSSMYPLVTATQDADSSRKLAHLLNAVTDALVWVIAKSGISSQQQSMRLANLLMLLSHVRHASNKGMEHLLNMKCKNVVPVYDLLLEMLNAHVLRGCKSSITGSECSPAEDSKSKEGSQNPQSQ
smiles,measurement,setting,value
"C=CCc1ccc(O)c(-c2ccc(OC(CCNC)c3ccccc3)c(CC=C)c2)c1 (centres unmarked) [Example 5, 3',5-Diallvl-4'-13-(methylamino)-1-phenylpropoxy]biphenyl-2-ol hydrochloride]",inhibition at 10 µM,[1],98%
same,inhibition at 10 µM,MAPK1 (ERK2),80%
same,IC50,tumor breast MCF-7,4.5 µM
same,IC50,tumor breast MDA-MB-231; MDA-MB-231,2.1 µM
same,IC50,tumor breast T-47D,1.6 µM
same,IC50,tumor liver Hep 3B,1.9 µM
"C=CCc1ccc(O)c(-c2cc(CC=C)ccc2OC(CCNC)c2ccccc2)c1.Cl (centres unmarked) [Example 1, 5,5'-Diallyl-2'-[3-(methylamino)-1-phenylpropoxy]biphenyl-2-ol hydrochloride]",inhibition at 10 µM,"[1]; CDK2, at 10 µM, read-out: % Inhibition",92%
same,inhibition at 10 µM,"MAPK1 (ERK2); MAPK1, at 10 µM, read-out: % Inhibition",58%
same,IC50,tumor brain U-87 MG,2 µM
same,IC50,"tumor breast MCF-7; tumor breast MCF-7, read-out: IC50",1.6 µM
same,IC50,"tumor breast MDA-MB-231; tumor breast MDA-MB-231, read-out: IC50",3.3 µM
same,IC50,"tumor breast T-47D; tumor breast T-47D, read-out: IC50",13 µM
same,IC50,tumor colon HCT-116,4.3 µM
same,IC50,"tumor liver Hep 3B; tumor liver Hep 3B, read-out: IC50",5.6 µM
same,IC50,tumor ovary OVCAR-3,4.6 µM
same,Time Licking and biting (sec) Late phase (15-30 min),mice [2]; dose 5 mg/kg i.p.,150 s
same,Time Licking and biting (sec) Late phase (15-30 min),mice [2]; dose 10 mg/kg i.p.,150 s
same,Time Licking and biting (sec) Late phase (15-30 min),mice [2]; dose 30 mg/kg i.p.,20 s
same,antinociceptive activity in the hot plate test,mice [2]; dose not given,antinociceptive activity
same,inhibition at 10 µM,ERα,13%
same,inhibition at 10 µM,ERβ,7%
same,Time Licking and biting (sec) Early phase (0-5 min),mice [3]; dose 1 mg/kg i.p.,57 s
same,Time Licking and biting (sec) Late phase (15-30 min),mice [3]; dose 1 mg/kg i.p.,200 s
same,Time Licking and biting (sec) Early phase (0-5 min),mice [3]; dose 5 mg/kg i.p.,45 s
same,Time Licking and biting (sec) Early phase (0-5 min),mice [3]; dose 10 mg/kg i.p.,38 s
same,Time Licking and biting (sec) Early phase (0-5 min),mice [3]; dose 30 mg/kg i.p.,30 s
"C=CCc1ccc(O)c(-c2ccc(O)c(CC=C)c2)c1 [Honokiol, reference compound]",IC50,tumor brain U-87 MG,56 µM
same,IC50,tumor colon HCT-116,17 µM
same,IC50,tumor ovary OVCAR-3,38 µM
